Molecules are shown by their SMILES.

The assay has as its target T1, human Glucose-dependent Insulinotropic Polypeptide Receptor (hGIPR) (Homo sapiens, UniProt P48546).
T1 sequence (P48546 22-466): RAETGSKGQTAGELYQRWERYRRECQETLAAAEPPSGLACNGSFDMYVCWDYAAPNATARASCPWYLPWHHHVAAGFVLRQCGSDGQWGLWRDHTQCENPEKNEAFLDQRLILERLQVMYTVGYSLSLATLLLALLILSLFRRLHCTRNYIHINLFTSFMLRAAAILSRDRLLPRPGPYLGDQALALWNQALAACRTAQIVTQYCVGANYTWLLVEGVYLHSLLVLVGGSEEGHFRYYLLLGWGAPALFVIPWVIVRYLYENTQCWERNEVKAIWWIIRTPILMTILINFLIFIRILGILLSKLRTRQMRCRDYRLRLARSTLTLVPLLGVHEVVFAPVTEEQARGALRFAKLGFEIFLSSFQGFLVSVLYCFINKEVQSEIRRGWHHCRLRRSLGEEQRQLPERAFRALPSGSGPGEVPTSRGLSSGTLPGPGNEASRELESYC
Description: Functional in vitro GIPR antagonist potency assay (cAMP HTRF, CHO-K1 cells stably expressing hGIPR, hGIP stimulation at about EC80). Type of assay: cell-based. The conditions noted are these: geometric mean, hGIP at estimated EC80, examples marked ^2: overall geometric mean of multiple forms (including salts) tested. The method, boiled down:
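HTRF quantification of cAMP after stimulation with hGIP at an estimated EC80 for 30 min at 37 °C. Before stimulation, hGIPR-expressing CHO-K1 cells were exposed 2 h to test compound in IBMX-containing buffer, with 0.5% DMSO final. Percent effect is referenced to agonist alone (0%) and to 80 μM of a reference antagonist (100%), and runs required the agonist concentration to fall within the on-the-day EC50–EC90.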
As usually defined, the IC50 is the concentration that inhibits the measured activity by half. Consider `O=C(O)c1ccc(-c2ccc(NC(=O)[C@H]3CCCN3C(=O)NCc3ccc(Cl)cc3F)cc2)cc1` [Example 132, 4′-[(1-{[(4-chloro-2-fluorophenyl)methyl]carbamoyl}-D-prolyl)amino][1,1′-biphenyl]-4-carboxylic acid], for which the concentration for half-maximal inhibition (IC50) is 77 nM.

On to `O=C(O)c1ccc(-c2ccc(NC(=O)[C@H]3CCCN3C(=O)NCc3c(F)cc(Cl)cc3F)cc2)cc1` [Example 133, 4′-[(1-{[(4-chloro-2,6-difluorophenyl)methyl]carbamoyl}-D-prolyl)amino][1,1′-biphenyl]-4-carboxylic acid], for which the IC50 was 180 nM.

As for `COc1cc(C(F)(F)F)ccc1NC(=O)N1CCC[C@@H]1C(=O)Nc1ccc(-c2ccc(C(=O)O)cc2)cc1` [Example 134, 4′-[(1-{[2-methoxy-4-(trifluoromethyl)phenyl]carbamoyl}-D-prolyl)amino][1,1′-biphenyl]-4-carboxylic acid], the 50% inhibitory concentration (IC50) was 140 nM.

Turning to `CC(C)c1ccc(NC(=O)N2CCC[C@@H]2C(=O)Nc2ccc(-c3ccc(C(=O)O)cc3)cc2)c(Cl)c1` [Example 135, 4′-[(1-{[2-chloro-4-(propan-2-yl)phenyl]carbamoyl}-D-prolyl)amino][1,1′-biphenyl]-4-carboxylic acid], the IC50 was 52 nM.

As to `O=C(O)c1ccc(-c2ccc(NC(=O)[C@H]3CCCN3C(=O)NCc3ccc(C4CC4)cc3)cc2)cc1` [Example 136, 4′-[(1-{[(4-cyclopropylphenyl)methyl]carbamoyl}-D-prolyl)amino][1,1′-biphenyl]-4-carboxylic acid], the concentration for half-maximal inhibition (IC50) is 7.8 nM.

Turning to `CC(C)Cc1ccc(CNC(=O)N2CCC[C@@H]2C(=O)Nc2ccc(-c3ccc(C(=O)O)cc3)cc2)cc1` [Example 137, 4′-{[1-{{[4-(2-methylpropyl)phenyl]methyl}carbamoyl)-D-prolyl]amino}[1,1′-biphenyl]-4-carboxylic acid], the IC50 is 9.8 nM.

Consider `O=C(O)c1ccc(-c2ccc(NC(=O)[C@H]3CCCN3C(=O)NCc3cc(F)c(Cl)cc3F)cc2)cc1` [Example 138, 4′-[(1-{[(4-chloro-2,5-difluorophenyl)methyl]carbamoyl}-D-prolyl)amino][1,1′-biphenyl]-4-carboxylic acid], for which the 50% inhibitory concentration (IC50) is 42 nM.

Consider `O=C(O)c1ccc(-c2ccc(NC(=O)[C@H]3CCCN3C(=O)NCc3ccc(C(F)(F)F)cc3Cl)cc2)cc1` [Example 139, 4′-{[1-({[2-chloro-4-(trifluoromethyl)phenyl]methyl}carbamoyl)-D-prolyl]amino}[1,1′-biphenyl]-4-carboxylic acid], for which the IC50 was 93 nM.

As to `O=C(O)c1ccc(-c2ccc(NC(=O)[C@H]3CCCN3C(=O)Nc3ccc(C4CC4)cc3F)cc2)cc1` [Example 140, 4′-({1-[(4-cyclopropyl-2-fluorophenyl)carbamoyl]-D-prolyl}amino)[1,1′-biphenyl]-4-carboxylic acid], the IC50 was 67 nM.

Consider `O=C(O)c1ccc(-c2ccc(NC(=O)[C@H]3CCCN3C(=O)NCc3ccc(C(F)F)cc3)cc2)cc1` [Example 141, 4′-{[1-({[4-(difluoromethyl)phenyl]methyl}carbamoyl)-D-prolyl]amino}[1,1′-biphenyl]-4-carboxylic acid], for which the IC50 is 97 nM.

Turning to `Cc1cc(C2CC2)ccc1NC(=O)N1CCC[C@@H]1C(=O)Nc1ccc(-c2ccc(C(=O)O)cc2)cc1` [Example 142, 4′-({1-[(4-cyclopropyl-2-methylphenyl)carbamoyl]-D-prolyl}amino)[1,1′-biphenyl]-4-carboxylic acid], the IC50 was 130 nM.

In the case of `COc1cc(NC(=O)N2CCC[C@@H]2C(=O)Nc2ccc(-c3ccc(C(=O)O)cc3)cc2)ccc1C(F)(F)F` [Example 143, 4′-[(1-{[3-methoxy-4-(trifluoromethyl)phenyl]carbamoyl}-D-prolyl)amino][1,1′-biphenyl]-4-carboxylic acid], the IC50 was 35 nM.

Take `Cc1cc(NC(=O)N2CCC[C@@H]2C(=O)Nc2ccc(-c3ccc(C(=O)O)cc3)cc2)ccc1C1CC1` [Example 144, 4′-({1-[(4-cyclopropyl-3-methylphenyl)carbamoyl]-D-prolyl}amino)[1,1′-biphenyl]-4-carboxylic acid]: the half-maximal inhibitory concentration (IC50) is 6.1 nM.

(Values after patent US20240366598A1, “GLUCOSE-DEPENDENT INSULINOTROPIC POLYPEPTIDE RECEPTOR ANTAGONISTS AND USES THEREOF” (Pfizer Inc., priority 2023, published 2024).)
